Key:
PLA2G16 = biological target: T1, PLA2G16 (Homo sapiens, UniProt P53816); assay: Enzyme activity assay for PLA2G16 (Red/Green BODIPY PC-A2 fluorescence); assay type: biochemical; settings: His-tagged PLA2G16, 4 min pre-incubation, 2 nM to 50 μM; read-out: IC50 values of the compounds determined in the enzyme activity assay for PLA2G16
T1 construct: Hexa-His (N); made in house; host or cells: E. coli BL21(DE3)
T1 sequence (P53816 1-162): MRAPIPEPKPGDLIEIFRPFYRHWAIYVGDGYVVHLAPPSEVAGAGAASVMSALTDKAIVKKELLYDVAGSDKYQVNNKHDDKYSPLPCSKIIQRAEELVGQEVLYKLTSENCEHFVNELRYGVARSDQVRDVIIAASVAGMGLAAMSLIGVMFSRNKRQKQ
In short: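 IC50 from non-linear fits of fluorescence rise (480/530 nm, 10 min) after adding Red/Green BODIPY PC-A2 mixed with DOPC/DOPG/cholesterol liposomes. Recombinant His-tagged human enzyme, bacterially expressed, was first exposed to inhibitor (2 nM–50 μM final) for 4 min in 50 mM Tris pH 8.5, 100 mM NaCl, 5 mM glutathione.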

[1] = tested on: picornaviruses (CVB1, HRV-A2, HRV-A23, EV-68); assay: Anti-picornavirus cytopathic effect (CPE) reduction assay on HeLa H1 cells; assay type: cell-based; settings: Enterovirus B, HeLa H1, 48 h, HeLa H1 cells, 48 h, category from averaging the EC50 values from four picornaviruses (CVB1, HRV-A2, HRV-A23, EV68); read-out: EC50 values of the compounds determined in the anti-picornavirus assay
In short: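 Cytopathic-effect protection: EC50 from non-linear regression of cell viability (CellTiterBlue, 560/590 nm) 48 h post-infection, scaled between infected and mock-infected vehicle wells. Compound dilutions added to HeLa H1 cells 2 h before virus (MOI causing complete CPE within 2 days), in DMEM + 2% FBS; categories average the four viruses.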

Row | SMILES | IC50 (PLA2G16) [nM] | EC50 [1] [nM]
1 | CC(C)CC(C(=O)C(=O)NCC1CC1)N(C=O)CC1CCOC1 (stereo not drawn) [FP 73, N-(Cyclopropylmethyl)-5-methyl-2-oxo-3-{N-[(oxolan-3-yl)methyl]formamido} hexanamide] | < 1000 | 1000 to 10000
2 | CC(C(=O)C(=O)NCC1CC1)N(C=O)Cc1ccccc1 (stereo not drawn) [FP 37, 3-(N-Benzylformamido)-N-(cyclopropyylmethyl)-2-oxobutanamide] | < 1000 | < 1000
3 | O=C(NCC1CCCCC1)C(=O)C1CCC(=O)N1Cc1nccs1 (stereo not drawn) [FP 311] | < 1000 | < 1000
4 | COc1ccccc1N(C=O)C(C)C(=O)C(=O)NCC1CCCCC1 (stereo not drawn) [FP 25, N-(Cyclohexylmethyl)-3-[N-(2-methoxyphenyl)formamido]-2-oxobutanamide] | < 1000 | < 1000
5 | CC(C)CNC(=O)C(=O)C(C)N(C=O)Cc1ccccc1 (stereo not drawn) [FP 47, 3-(N-Benzylformamido)-N-(2-methylpropyl)-2-oxobutanamide] | < 1000 | 1000 to 10000
6 | Cc1ccc(CN2C(=O)CCC2C(=O)C(=O)NC2CC2)s1 (stereo not drawn) [FP 277, N-Cyclopropyl-2-{1-[(5-methylthiophen-2-yl)methyl]-5-oxopyrrolidin-2-yl}-2-oxoacetamide] | < 1000 | 1000 to 10000
7 | O=C(NCC1CC1)C(=O)C1CCC(=O)N1Cc1ccc(F)cc1 (stereo not drawn) [FP 241, N-(Cyclopropylmethyl)-2-{1-[(4-fluorophenyl)methyl]-5-oxopyrrolidin-2-yl}-2-oxoacetamide] | < 1000 | < 1000
8 | CC(C(=O)C(=O)NC1CC1)N(C=O)C1CCCCC1 (stereo not drawn) [FP 42, 3-(N-Cyclohexylformamido)-N-cyclopropyl-2-oxobutanamide] | < 1000 | 1000 to 10000
9 | CC(C)OCCNC(=O)C(=O)[C@H]1CCC(=O)N1Cc1ccccc1 [FP 286, 2-[(2R)-1-Benzyl-5-oxopyrrolidin-2-yl]-2-oxo-N-[2-(propan-2-yloxy)ethyl]acetamide] | < 1000 | 1000 to 10000
10 | O=C(NC1CC1)C(=O)C1CCC(=O)N1Cc1ccc(Cl)cc1F (stereo not drawn) [FP 234, 2-{1-[(4-Chloro-2-fluorophenyl)methyl]-5-oxopyrrolidin-2-yl}-N-cyclopropyl-2-oxoacetamide] | < 1000 | 1000 to 10000
11 | CCC(NS(=O)(=O)c1ccccc1)C(=O)C(=O)NCC1CC1 (stereo not drawn) [FP 216, 3-Benzenesulfonamido-N-(cyclopropylmethyl)-2-oxopentanamide] | < 1000 | 1000 to 10000
12 | CC(C)C(=O)N(C)CCNC(=O)C(=O)[C@H]1CCC(=O)N1Cc1ccccc1 [FP 333, N-(2-{2-[(2R)-1-Benzyl-5-oxopyrrolidin-2-yl]-2-oxoacetamido}ethyl)-N,2-dimethyl-propanamide] | < 1000 | 1000 to 10000
13 | O=C(NCC1CC1)C(=O)C1CCC(=O)N1CC1CCCC1 (stereo not drawn) [FP 280, 2-[1-(Cyclopentylmethyl)-5-oxopyrrolidin-2-yl]-N-(cyclopropylmethyl)-2-oxoacetamide] | < 1000 | < 1000
14 | Cc1ccccc1CN1C(=O)CCC1C(=O)C(=O)NC1CC1 (stereo not drawn) [FP 261, N-Cyclopropyl-2-{1-[(2-methylphenyl)methyl]-5-oxopyrrolidin-2-yl}-2-oxoacetamide] | < 1000 | 1000 to 10000
15 | CC(C)NC(=O)C(=O)C1CCC(=O)N1Cc1ccccc1 (stereo not drawn) [FP 308, 2-(1-Benzyl-5-oxopyrrolidin-2-yl)-2-oxo-N-(propan-2-yl)acetamide] | < 1000 | < 1000
16 | C[C@H]1CC(=O)N(Cc2ccccc2)[C@H]1C(=O)C(=O)NCC1CC1 (single isomer, unassigned) [FP 337] | < 1000 | < 1000
17 | O=C(NCC1CC1)C(=O)C1CCC(=O)N1Cc1ccc(Cl)cc1 (stereo not drawn) [FP 203, 2-{1-[(4-Chlorophenyl)methyl]-5-oxopyrrolidin-2-yl}-N-(cyclopropylmethyl)-2-oxoacetamide] | < 1000 | < 1000
18 | CCC(C(=O)C(=O)NCc1cccc(Cl)c1)N(C=O)c1ccccc1OC (stereo not drawn) [FP 12, N-[(3-Chlorophenyl)methyl]-3-[N-(2-methoxyphenyl)formamido]-2-oxopentanamide] | < 1000 | 1000 to 10000
19 | CC(C(=O)C(=O)NCC1CCC1)N(C=O)Cc1ccccc1 (stereo not drawn) [FP 201, 3-(N-Benzylformamido)-N-(cyclobutylmethyl)-2-oxobutanamide] | < 1000 | < 1000
20 | Cc1ccc(C(=O)NC(C)C(=O)C(=O)NCC2CC2)cc1 (stereo not drawn) [FP 159, N-(Cyclopropylmethyl)-3-[(4-methylphenyl)formamido]-2-oxobutanamide] | < 1000 | > 10000

Row | SMILES | IC50 (PLA2G16) [nM] | EC50 [1] [nM]
21 | O=C(NC1CCCC1)C(=O)C1CCC(=O)N1CC1CC1 (stereo not drawn) [FP 254, N-Cyclopentyl-2-[1-(cyclopropylmethyl)-5-oxopyrrolidin-2-yl]-2-oxoacetamide] | < 1000 | 1000 to 10000
22 | CC(OCC1CC1)C(=O)C(=O)NCC1CC1 (stereo not drawn) [FP 134, 3-(Cyclopropylmethoxy)-N-(cyclopropylmethyl)-2-oxobutanamide] | < 1000 | 1000 to 10000
23 | CC(NC(=O)c1ccccc1Br)C(=O)C(=O)NCC1CC1 (stereo not drawn) [FP 166, 3-[(2-Bromophenyl)formamido]-N-(cyclopropylmethyl)-2-oxobutanamide] | < 1000 | 1000 to 10000
24 | CNC(=O)C(=O)C(CC1CCC1)N(C=O)Cc1ccccc1 (stereo not drawn) [FP 196, 3-(N-Benzylformamido)-4-cyclobutyl-N-methyl-2-oxobutanamide] | < 1000 | 1000 to 10000
25 | CC(C(=O)C(=O)NCC1CCCCC1)N(C=O)CC1CCOCC1 (stereo not drawn) [FP 49, N-(Cyclohexylmethyl)-3-{N-[(oxan-4-yl)methyl]formamido}-2-oxobutanamide] | < 1000 | < 1000
26 | COc1ccccc1N(C=O)C(C)C(=O)C(=O)NCc1cccnc1 (stereo not drawn) [FP 89, 3-[N-(2-Methoxyphenyl)formamido]-2-oxo-A[(pyridin-3-yl)methyl]butanamide] | < 1000 | > 10000
27 | Cc1ccccc1C(=O)N[C@H](C)C(=O)C(=O)NCC1CC1 (single isomer, unassigned) [FP 158] | < 1000 | 1000 to 10000
28 | CC(C(=O)C(=O)NCC1CC1)N(C=O)CC1CCN(C(=O)C2CCCCC2)CC1 (stereo not drawn) [FP 81, 3-{N-[(1-Cyclohexanecarbonylpiperidin-4-yl)methyl]formamido}-N-(cyclopropylmethyl)-2-oxobutanamide] | 1000 to 10000 | > 10000
29 | CC(NC(=O)C1CCCCC1)C(=O)C(=O)NCC1CC1 (stereo not drawn) [FP 161, 3-(Cyclohexylformamido)-N-(cyclopropylmethyl)-2-oxobutanamide] | < 1000 | > 10000
30 | CCCC(=O)N(c1ccccc1OC)C(C)C(=O)C(=O)NCc1cccc(Cl)c1 (stereo not drawn) [FP 143, N-[(3-Chlorophenyl)methyl]-3-[N-(2-methoxyphenyl)butanamido]-2-oxobutanamide] | < 1000 | 1000 to 10000
31 | CC(C)CC(OCC1CCOCC1)C(=O)C(=O)NCC1CC1 (stereo not drawn) [FP 130, N-(Cyclopropylmethyl)-5-methyl-3-[(oxan-4-yl)methoxy]-2-oxohexanamide] | < 1000 | 1000 to 10000
32 | CC(NC(=O)C1CC(F)(F)C1)C(=O)C(=O)NCC1CC1 (stereo not drawn) [FP 174, N-(Cyclopropylmethyl)-3-[(3,3-difluorocyclobutyl)formamido]-2-oxobutanamide] | 1000 to 10000 | > 10000
33 | CCC(NC(=O)c1ccncc1)C(=O)C(=O)NCC1CCCCC1 (stereo not drawn) [FP 208, N-(Cyclohexylmethyl)-2-oxo-3-[(pyridin-4-yl)formamido]pentanamide] | < 1000 | > 10000
34 | CC(C)CC(C(=O)C(=O)NCC1CC1)N(C=O)CC1CCCO1 (stereo not drawn) [FP 74, N-(Cyclopropylmethyl)-5-methyl-2-oxo-3-{N[(oxolan-2-yl)methyl]formamido} hexanamide] | < 1000 | 1000 to 10000
35 | O=C(NCCC1CC1)C(=O)C1CCC(=O)N1Cc1ccccc1 (stereo not drawn) [FP 307, 2-(1-Benzyl-5-oxopyrrolidin-2-yl)-N-(2-cyclopropylethyl)-2-oxoacetamide] | < 1000 | < 1000
36 | O=C(NC1CC1)C(=O)C1CCC(=O)N1Cc1cccc(Cl)c1 (stereo not drawn) [FP 240, 2-{1-[(3-Chlorophenyl)methyl]-5-oxopyrrolidin-2-yl}-N-cyclopropyl-2-oxoacetamide] | < 1000 | 1000 to 10000
37 | CC(NC(=O)C1CCN(CC(F)(F)F)CC1)C(=O)C(=O)NCC1CCCCC1 (stereo not drawn) [FP 206, N-(Cyclohexylmethyl)-2-oxo-3-{[1-(2,2,2-trifluoroethyl)piperidin-4-yl]formamido}-butanamide] | < 1000 | 1000 to 10000
38 | O=C(NCC1CCCCC1)C(=O)C1CCC(=O)N1CC1CCOCC1 (stereo not drawn) [FP 248, N-(Cyclohexylmethyl)-2-{1-[(oxan-4-yl)methyl]-5-oxopyrrolidin-2-yl}-2-oxoacetamide] | < 1000 | < 1000
39 | COc1ccccc1N(C=O)C(C)C(=O)C(=O)NCC(C)(C)C (stereo not drawn) [FP 101, N-(2,2-Dimethylpropyl)-3-[N-(2-methoxyphenyl)formamido]-2-oxobutanamide] | < 1000 | 1000 to 10000

Source: patent US11091428B2 (HAPLOGEN GMBH, priority 2016, dated 2021)
